Experimental data as given in US11203608B2, “Platinum-containing compounds, and related compositions and uses thereof” (Massachusetts Institute of Technology, priority 2019, dated 2021).

Key:
Type in all cases: cell-based
[1] = tested on: cisplatin-resistant A2780CIS human ovarian cancer cell line; assay: Cell growth, resazurin assay, A2780CIS; conditions: 72-h exposure
Procedure: (§3) Cells were cultured in 10 mL of Advanced DMEM/F12 (ADMEM/F12), supplemented with 5% FBS, 2 mM GlutaMAX, and 1% Penicillin-Streptomycin in 10 cm tissue culture plates. Cells were then plated into 96-well plates with about 2.5×10^3 cells per well. Cells were plated with 200 μL per well of ADMEM/F12 supplemented with 5% FBS, 2 mM GlutaMAX, and 1% Penicillin-Streptomycin. Cells were treated with dose responses of doxorubicin, oxaliplatin, or doxaliplatin upon plating. The cells were then cultured for 72 hours following drug treatment, and cell growth was measured by resazurin assay.

[2] = tested on: APC−/−; KRASG12D/WT; P53−/−; TdTomato+ (AKP-tdt) organoids; assay: Viability of AKP-tdt murine colorectal cancer organoids, resazurin assay; conditions: 72-h exposure (table title); read-out: IC50 against AKP-tdt organoids
From the text: (§1) Colonic crypts were isolated and colon organoids were generated from the following mouse genotypes on a C57Bl/6 background: 1. Rosa-LSL-TdTomato (hereafter LSL-tdt), 2. P53^f1/f1; LSL-tdt, and 3. LSL-KRAS^G12D/WT; P53^fl/fl; LSL-tdt mice. Subsequently, the pSECC-APC plasmid (carrying Cre, Cas9, and sgAPC) was transfected into each of the above three genotypes of colon organoids. This transfection strategy generated, in a single step, the following colorectal cancer organoids, including 1. APC^−/−; TdTomato^+ (A-tdt), 2. APC^−/−; P53^−/−; TdTomato^+ (AP-tdt), and 3. APC^−/−; KRAS^G12D/WT; P53^−/−; TdTomato^+ (AKP-tdt). Organoids of the desired genotype were selected for by Wnt/Rspo withdrawal for APC^−/−, Nutlin-3 addition for P53^−/−, and EGF withdrawal for KRAS^G12D.
(§2) Twenty four hours after seeding the organoids, a media change was performed and dose responses of oxaliplatin, doxorubicin and doxaliplatin were added. […] Organoids were cultured in Advanced DMEM/F12 supplemented with 2 mM GlutaMAX, 1% Penicillin-Streptomycin, 2% B27, and Y-27632 (10 μM).

[3] = tested on: MDA-MB-231 human breast adenocarcinoma; assay: Cell growth, resazurin assay, MDA-MB-231; conditions: 96-h exposure (table title)
Procedure: as §3

[4] = tested on: HT-29 human colorectal adenocarcinoma; assay: Cell growth, resazurin assay, HT-29; conditions: 96-h exposure (table title); read-out: IC50 HT-29 (colon)
Procedure: as §3

[5] = tested on: APC−/−; P53−/−; TdTomato+ (AP-tdt) organoids; assay: Viability of AP-tdt murine colorectal cancer organoids, resazurin assay; conditions: 72-h exposure (table title); read-out: IC50 against AP-tdt organoids
From the text: as §1, §2

[6] = tested on: doxorubicin-resistant A2780ADR human ovarian cancer cell line; assay: Cell growth, resazurin assay, A2780ADR; conditions: 72-h exposure
Procedure: as §3

[7] = tested on: APC−/−; TdTomato+ (A-tdt) organoids; assay: Viability of A-tdt murine colorectal cancer organoids, resazurin assay; conditions: 72-h exposure (table title); read-out: IC50 against A-tdt organoids
From the text: as §1, §2

[8] = tested on: A2780 human ovarian cancer cell line; assay: Cell growth, resazurin assay, A2780; conditions: A2780, 72-h exposure
Procedure: as §3

## COc1cccc2c1C(=O)c1c(O)c3c(c(O)c1C2=O)CC(O)(C(=O)CO)CC3OC1CC(N)C(N)C(C)O1.O=C1[O][Pt][O]C1=O (centres unmarked) [DoxPt, Doxaliplatin]
[1]
  IC50: 0.28 µM
  IC90: 0.38 µM
  IC95: 0.41 µM
[2]
  IC50: 0.43 µM
[3]
  IC50: 0.11 µM
[4]
  IC50: 0.33 µM
[5]
  IC50: 0.41 µM
[6]
  IC50: 0.072 µM
  IC90: 0.49 µM
  IC95: 0.67 µM
[7]
  IC50: 0.46 µM
[8]
  IC50: 0.016 µM
  IC90: 0.38 µM
  IC95: 0.68 µM
